Patent publication US11596622B2, “Mazindol treatment for heroin dependence and substance use disorder” (NLS Pharmaceutics AG, priority 2017, dated 2023)

Assays:
5-HT1A(h) = target: T1, 5-HT1A(h) (Homo sapiens, UniProt P08908); experiment: Radioligand binding, 5-HT1A (Eurofins CEREP); conditions: 1.0 × 10^−05 M; agonist radioligand; read-out: percent inhibition of the binding of a radioactively labeled ligand
T1 construct: Eurofins CEREP
T1 sequence (P08908 1-422): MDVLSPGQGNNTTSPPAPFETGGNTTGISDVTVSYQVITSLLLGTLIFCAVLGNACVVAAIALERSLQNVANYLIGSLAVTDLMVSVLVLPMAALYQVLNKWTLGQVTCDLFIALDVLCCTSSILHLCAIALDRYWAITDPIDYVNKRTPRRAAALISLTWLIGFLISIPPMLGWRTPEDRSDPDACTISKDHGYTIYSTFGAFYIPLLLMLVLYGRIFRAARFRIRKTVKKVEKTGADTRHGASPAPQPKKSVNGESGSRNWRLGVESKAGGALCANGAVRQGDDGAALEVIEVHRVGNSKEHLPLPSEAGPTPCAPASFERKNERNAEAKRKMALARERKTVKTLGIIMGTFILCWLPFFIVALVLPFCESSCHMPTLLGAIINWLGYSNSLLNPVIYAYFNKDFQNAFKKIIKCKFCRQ
Text: Table A discloses mazindol and Met tested at […] and the compound binding calculated as a percent inhibition of the binding of a radioactively labeled ligand specific for each target (Eurofins CEREP, France).
An inhibition or stimulation of more than 50% is considered a significant effect of the test compounds. Fifty percent is a common cut-off for further investigation (i.e. determination of IC50 or EC50 values from concentration-response curves).
The results are expressed as a percent of control specific binding obtained in the presence of the test compounds:
[formula] and as a percent inhibition of control specific binding obtained in the presence of the test compounds: […]

C57BL/6J mice = experiment: Effect of treatment on the conditioned place preference induced by heroin; type: in vivo; conditions: for Distance travelled in the drug-paired compartment / Distance travelled in the two compartments (Drug + Vehicle) / Distance travelled in the vehicle-paired compartment / Distance travelled, drug-paired minus vehicle-paired compartment / Time spent in the drug-paired compartment / Time spent in the vehicle-paired compartment / Time spent, drug-paired minus vehicle-paired compartment: mean
Text: Conditioned place preference (CPP) is a widely used procedure for studying the potential addictive effect of drugs. CPP is based upon the tendency of rodents to approach a stimulus that has previously been paired with an incentive state induced by a drug. A drug that induces a CPP may be suspected to present reinforcing effects that could lead to addiction. Numerous addictive drugs, such as opiate agonists or stimulants induce a CPP and a behavioral sensitization.
The effect of mazindol on place preference was examined in C57BL/6J mice using a method similar to the one used by Schlussman et al. (9).
The third experiments consisted in examining the effects of mazindol and D-amphetamine (at doses chosen from results of the first part of the study) on the place preference induced by heroin at a dose chosen from results of the second experiment, which was 1.25 mg/kg. Mazindol (0.125, 0.25 and 0.5 mg/kg) and D-amphetamine (0.5 mg/kg) were tested.
Therefore, it was decided to perform an additional experiment to examine the effects on place preference induced by heroin of mazindol at 1 and 2 mg/kg and of D-amphetamine at 1 mg/kg.
(§1) Following the habituation session (on day 1), animals (N=72) were pseudo-randomly assigned to two groups, a Control group (N=12) and a Heroin group (N=60), in a way that there was no significant difference between the two groups for the total distance travelled in the apparatus and for the percentage of time spent and the percentage distance travelled in the grey compartment and in the striped compartment.
Animals received the following treatments immediately before drug sessions: • Control group: vehicle • Heroin group: heroin (1.25 mg/kg)
(§2) Following the last conditioning session, the Heroin group was pseudo-randomly divided into 5 groups (N=12/group) in a way that there was no significant difference between groups for the total distance travelled in the apparatus and for the percentage of time spent and the percentage distance travelled in the grey compartment and in the striped compartment in habituation session, for the distance travelled in the drug-paired and in the vehicle-paired compartments in conditioning sessions and for the proportion of striped drug-paired compartments.
Animals received the following treatments before preference session: • Control group: vehicle of mazindol, i.p. 60 min before testing. • Hero group: vehicle of mazindol, i.p. 60 min before testing. • Hero-A 0.5 group: D-amphetamine (0.5 mg/kg), i.p. 30 min before testing. • Hero-Mz 0.125 group: mazindol (0.125 mg/kg), i.p. 60 min before testing. • Hero-Mz 0.25 group: mazindol (0.25 mg/kg), i.p. 60 min before testing. • Hero-Mz 0.5 group: mazindol (0.5 mg/kg), i.p. 60 min before testing.
as §1, with “three” for “two”, “(N=12),” for “(N=12) and”, “(N=48) and a Mazindol group (N=12),” for “(N=60),”
Animals received the following treatments before drug sessions: • Control group: vehicle, i.p. immediately before session. • Heroin group: heroin (1.25 mg/kg), i.p. immediately before session. • MAZ 2 group: mazindol (2 mg/kg), i.p. 60 min before session.
as §2, with “into 4” for “into 5”, “there is” for “there was”, “compartments. […]” for “compartments.”

[1] = Hero-Mz 0.125: heroin 1.25 mg/kg conditioning, mazindol 0.125 mg/kg i.p. 60 min before preference session
[2] = Hero-Mz 0.25: heroin 1.25 mg/kg conditioning, mazindol 0.25 mg/kg i.p. 60 min before preference session
[3] = Hero-Mz 0.5: heroin 1.25 mg/kg conditioning, mazindol 0.5 mg/kg i.p. 60 min before preference session
[4] = Hero-Mz 1: heroin 1.25 mg/kg conditioning, mazindol 1 mg/kg i.p. 60 min before preference session
[5] = Hero-Mz 2: heroin 1.25 mg/kg conditioning, mazindol 2 mg/kg i.p. 60 min before preference session

OC1(c2ccc(Cl)cc2)c2ccccc2C2=NCCN21 (centres unmarked) [Mazindol, 5-(4-chlorophenyl)-2,5-dihydro-3 H-imadazo[2,1-a]isoindol-5-ol]
inhibition at 10 µM (5-HT1A(h)): 89.5% | Distance travelled in the drug-paired compartment (C57BL/6J mice; [1]): 5623.8 cm | Distance travelled in the two compartments (Drug + Vehicle) (C57BL/6J mice; [1]): 9800.4 cm | Distance travelled in the vehicle-paired compartment (C57BL/6J mice; [1]): 4176.5 cm | Distance travelled, drug-paired minus vehicle-paired compartment (C57BL/6J mice; [1]): 1447.3 cm | Time spent in the drug-paired compartment (C57BL/6J mice; [1]): 1105.7 s | Time spent in the vehicle-paired compartment (C57BL/6J mice; [1]): 694.3 s | Time spent, drug-paired minus vehicle-paired compartment (C57BL/6J mice; [1]): 411.3 s | Distance travelled in the drug-paired compartment (C57BL/6J mice; [2]): 5092.1 cm | Distance travelled in the two compartments (Drug + Vehicle) (C57BL/6J mice; [2]): 9390.5 cm | Distance travelled in the vehicle-paired compartment (C57BL/6J mice; [2]): 4298.4 cm | Distance travelled, drug-paired minus vehicle-paired compartment (C57BL/6J mice; [2]): 793.8 cm | Time spent in the drug-paired compartment (C57BL/6J mice; [2]): 933.9 s | Time spent in the vehicle-paired compartment (C57BL/6J mice; [2]): 866.1 s | Time spent, drug-paired minus vehicle-paired compartment (C57BL/6J mice; [2]): 67.8 s | Distance travelled in the drug-paired compartment (C57BL/6J mice; [3]): 4411.7 cm | Distance travelled in the two compartments (Drug + Vehicle) (C57BL/6J mice; [3]): 8164.5 cm | Distance travelled in the vehicle-paired compartment (C57BL/6J mice; [3]): 3752.8 cm | Distance travelled, drug-paired minus vehicle-paired compartment (C57BL/6J mice; [3]): 659.0 cm | Time spent in the drug-paired compartment (C57BL/6J mice; [3]): 965.1 s | Time spent in the vehicle-paired compartment (C57BL/6J mice; [3]): 834.9 s | Time spent, drug-paired minus vehicle-paired compartment (C57BL/6J mice; [3]): 130.1 s | Distance travelled in the drug-paired compartment (C57BL/6J mice; [4]): 5464.5 cm | Distance travelled in the two compartments (Drug + Vehicle) (C57BL/6J mice; [4]): 9746.4 cm | Distance travelled in the vehicle-paired compartment (C57BL/6J mice; [4]): 4281.9 cm | Distance travelled, drug-paired minus vehicle-paired compartment (C57BL/6J mice; [4]): 1182.6 cm | Time spent in the drug-paired compartment (C57BL/6J mice; [4]): 1086.0 s | Time spent in the vehicle-paired compartment (C57BL/6J mice; [4]): 714.0 s | Time spent, drug-paired minus vehicle-paired compartment (C57BL/6J mice; [4]): 372.0 s | Distance travelled in the drug-paired compartment (C57BL/6J mice; [5]): 7038.9 cm | Distance travelled in the two compartments (Drug + Vehicle) (C57BL/6J mice; [5]): 12086.8 cm | Distance travelled in the vehicle-paired compartment (C57BL/6J mice; [5]): 5047.9 cm | Distance travelled, drug-paired minus vehicle-paired compartment (C57BL/6J mice; [5]): 1990.9 cm | Time spent in the drug-paired compartment (C57BL/6J mice; [5]): 1089.7 s | Time spent in the vehicle-paired compartment (C57BL/6J mice; [5]): 710.3 s | Time spent, drug-paired minus vehicle-paired compartment (C57BL/6J mice; [5]): 379.3 s | effect on the heroin-induced increases of distance travelled and of time spent in the drug-paired compartment (C57BL/6J mice; mazindol 0.125 mg): had no significant effect | effect on the heroin-induced increase of time spent in the drug-paired compartment (C57BL/6J mice; mazindol 0.25 mg/kg): Tended to reduce | effect on the heroin-induced increase of the difference of distance travelled in the drug-paired vs. vehicle-paired compartment (C57BL/6J mice; mazindol 0.25 mg/kg, effect partial): Significantly reduced | effect on the heroin-induced increase of the difference of distance travelled in the drug-paired vs. vehicle-paired compartment (C57BL/6J mice; mazindol 0.5 mg/kg): Significantly antagonized | effect on the heroin-induced increase of time spent in the drug-paired compartment (C57BL/6J mice; mazindol 0.5 mg/kg): Tended to reduce | effect on the heroin-induced increase of the difference of distance travelled in the drug-paired vs. vehicle-paired compartment (C57BL/6J mice; mazindol 1 mg/kg): Did not significantly reduce | effect on the heroin-induced increase of time spent in the drug-paired compartment (C57BL/6J mice; mazindol 1 mg/kg): Did not significantly modify | effect on the heroin-induced increases of distance travelled and of time spent in the drug-paired compartment (C57BL/6J mice; mazindol 2 mg): had no significant effect | effect on the place preference induced by heroin (C57BL/6J mice; mazindol 0.125, 1 and 2 mg/kg i.p. before preference session): did not induce effects suggesting a decrease of the place preference induced by heroin | locomotor activity (total distance travelled, FIG. 3) (C57BL/6J mice; mazindol 0.125-2 mg/kg i.p. before preference session): decreased locomotor activity at all doses tested except 2 mg/kg | effect on the place preference induced by heroin (C57BL/6J mice; mazindol 0.25, 0.5 mg/kg i.p. before preference session): decreased the place preference induced by heroin
